Measured values taken from patent US11572590B2, “Methods for evaluating tumor cell spheroids using 3D microfluidic cell culture device” (Dana-Farber Cancer Institute, Inc., priority 2017, dated 2023).
Like-named read-outs stand apart in the source and are kept apart here.

Experiments:
Test in all cases: SelectScreen Kinase Profiling, single point inhibition and IC50 for off-target kinases
Type in all cases: biochemical
off-target kinases [1] = target: off-target kinases (Homo sapiens, UniProt P07332); details: FES (FPS), ZLYTE, ATP Km app
off-target kinases [2] = target: off-target kinases (Homo sapiens, UniProt P49759); details: CLK1, ZLYTE, ATP Km app
off-target kinases [3] = target: off-target kinases (Homo sapiens, UniProt Q9P0L2); details: MARK1 (MARK), ATP Km app, ZLYTE
off-target kinases (Homo sapiens, UniProt Q9P0L2), sequence (Q9P0L2 whole entry): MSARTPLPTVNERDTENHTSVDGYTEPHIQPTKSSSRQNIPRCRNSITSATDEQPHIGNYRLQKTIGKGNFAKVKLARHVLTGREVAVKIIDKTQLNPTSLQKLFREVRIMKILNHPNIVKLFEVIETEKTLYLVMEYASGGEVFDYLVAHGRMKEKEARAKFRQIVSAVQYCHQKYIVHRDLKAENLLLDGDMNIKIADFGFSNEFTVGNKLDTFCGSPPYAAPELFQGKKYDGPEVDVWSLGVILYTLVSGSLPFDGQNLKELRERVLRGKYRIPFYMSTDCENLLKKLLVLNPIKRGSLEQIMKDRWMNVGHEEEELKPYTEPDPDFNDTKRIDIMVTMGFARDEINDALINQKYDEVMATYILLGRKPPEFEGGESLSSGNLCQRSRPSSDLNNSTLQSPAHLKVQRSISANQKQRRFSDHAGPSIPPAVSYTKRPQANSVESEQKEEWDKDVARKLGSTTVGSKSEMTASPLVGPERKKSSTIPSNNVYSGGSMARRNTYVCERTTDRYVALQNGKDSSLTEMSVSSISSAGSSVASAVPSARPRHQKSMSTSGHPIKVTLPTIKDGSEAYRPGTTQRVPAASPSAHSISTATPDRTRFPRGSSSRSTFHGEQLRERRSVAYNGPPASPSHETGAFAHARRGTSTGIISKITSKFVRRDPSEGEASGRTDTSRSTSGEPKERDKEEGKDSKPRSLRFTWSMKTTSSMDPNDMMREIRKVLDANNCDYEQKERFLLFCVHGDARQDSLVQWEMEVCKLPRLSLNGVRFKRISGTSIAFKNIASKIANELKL

off-target kinases [4] = target: off-target kinases (Homo sapiens, UniProt P78527)
off-target kinases (Homo sapiens, UniProt P78527), sequence (P78527 whole entry): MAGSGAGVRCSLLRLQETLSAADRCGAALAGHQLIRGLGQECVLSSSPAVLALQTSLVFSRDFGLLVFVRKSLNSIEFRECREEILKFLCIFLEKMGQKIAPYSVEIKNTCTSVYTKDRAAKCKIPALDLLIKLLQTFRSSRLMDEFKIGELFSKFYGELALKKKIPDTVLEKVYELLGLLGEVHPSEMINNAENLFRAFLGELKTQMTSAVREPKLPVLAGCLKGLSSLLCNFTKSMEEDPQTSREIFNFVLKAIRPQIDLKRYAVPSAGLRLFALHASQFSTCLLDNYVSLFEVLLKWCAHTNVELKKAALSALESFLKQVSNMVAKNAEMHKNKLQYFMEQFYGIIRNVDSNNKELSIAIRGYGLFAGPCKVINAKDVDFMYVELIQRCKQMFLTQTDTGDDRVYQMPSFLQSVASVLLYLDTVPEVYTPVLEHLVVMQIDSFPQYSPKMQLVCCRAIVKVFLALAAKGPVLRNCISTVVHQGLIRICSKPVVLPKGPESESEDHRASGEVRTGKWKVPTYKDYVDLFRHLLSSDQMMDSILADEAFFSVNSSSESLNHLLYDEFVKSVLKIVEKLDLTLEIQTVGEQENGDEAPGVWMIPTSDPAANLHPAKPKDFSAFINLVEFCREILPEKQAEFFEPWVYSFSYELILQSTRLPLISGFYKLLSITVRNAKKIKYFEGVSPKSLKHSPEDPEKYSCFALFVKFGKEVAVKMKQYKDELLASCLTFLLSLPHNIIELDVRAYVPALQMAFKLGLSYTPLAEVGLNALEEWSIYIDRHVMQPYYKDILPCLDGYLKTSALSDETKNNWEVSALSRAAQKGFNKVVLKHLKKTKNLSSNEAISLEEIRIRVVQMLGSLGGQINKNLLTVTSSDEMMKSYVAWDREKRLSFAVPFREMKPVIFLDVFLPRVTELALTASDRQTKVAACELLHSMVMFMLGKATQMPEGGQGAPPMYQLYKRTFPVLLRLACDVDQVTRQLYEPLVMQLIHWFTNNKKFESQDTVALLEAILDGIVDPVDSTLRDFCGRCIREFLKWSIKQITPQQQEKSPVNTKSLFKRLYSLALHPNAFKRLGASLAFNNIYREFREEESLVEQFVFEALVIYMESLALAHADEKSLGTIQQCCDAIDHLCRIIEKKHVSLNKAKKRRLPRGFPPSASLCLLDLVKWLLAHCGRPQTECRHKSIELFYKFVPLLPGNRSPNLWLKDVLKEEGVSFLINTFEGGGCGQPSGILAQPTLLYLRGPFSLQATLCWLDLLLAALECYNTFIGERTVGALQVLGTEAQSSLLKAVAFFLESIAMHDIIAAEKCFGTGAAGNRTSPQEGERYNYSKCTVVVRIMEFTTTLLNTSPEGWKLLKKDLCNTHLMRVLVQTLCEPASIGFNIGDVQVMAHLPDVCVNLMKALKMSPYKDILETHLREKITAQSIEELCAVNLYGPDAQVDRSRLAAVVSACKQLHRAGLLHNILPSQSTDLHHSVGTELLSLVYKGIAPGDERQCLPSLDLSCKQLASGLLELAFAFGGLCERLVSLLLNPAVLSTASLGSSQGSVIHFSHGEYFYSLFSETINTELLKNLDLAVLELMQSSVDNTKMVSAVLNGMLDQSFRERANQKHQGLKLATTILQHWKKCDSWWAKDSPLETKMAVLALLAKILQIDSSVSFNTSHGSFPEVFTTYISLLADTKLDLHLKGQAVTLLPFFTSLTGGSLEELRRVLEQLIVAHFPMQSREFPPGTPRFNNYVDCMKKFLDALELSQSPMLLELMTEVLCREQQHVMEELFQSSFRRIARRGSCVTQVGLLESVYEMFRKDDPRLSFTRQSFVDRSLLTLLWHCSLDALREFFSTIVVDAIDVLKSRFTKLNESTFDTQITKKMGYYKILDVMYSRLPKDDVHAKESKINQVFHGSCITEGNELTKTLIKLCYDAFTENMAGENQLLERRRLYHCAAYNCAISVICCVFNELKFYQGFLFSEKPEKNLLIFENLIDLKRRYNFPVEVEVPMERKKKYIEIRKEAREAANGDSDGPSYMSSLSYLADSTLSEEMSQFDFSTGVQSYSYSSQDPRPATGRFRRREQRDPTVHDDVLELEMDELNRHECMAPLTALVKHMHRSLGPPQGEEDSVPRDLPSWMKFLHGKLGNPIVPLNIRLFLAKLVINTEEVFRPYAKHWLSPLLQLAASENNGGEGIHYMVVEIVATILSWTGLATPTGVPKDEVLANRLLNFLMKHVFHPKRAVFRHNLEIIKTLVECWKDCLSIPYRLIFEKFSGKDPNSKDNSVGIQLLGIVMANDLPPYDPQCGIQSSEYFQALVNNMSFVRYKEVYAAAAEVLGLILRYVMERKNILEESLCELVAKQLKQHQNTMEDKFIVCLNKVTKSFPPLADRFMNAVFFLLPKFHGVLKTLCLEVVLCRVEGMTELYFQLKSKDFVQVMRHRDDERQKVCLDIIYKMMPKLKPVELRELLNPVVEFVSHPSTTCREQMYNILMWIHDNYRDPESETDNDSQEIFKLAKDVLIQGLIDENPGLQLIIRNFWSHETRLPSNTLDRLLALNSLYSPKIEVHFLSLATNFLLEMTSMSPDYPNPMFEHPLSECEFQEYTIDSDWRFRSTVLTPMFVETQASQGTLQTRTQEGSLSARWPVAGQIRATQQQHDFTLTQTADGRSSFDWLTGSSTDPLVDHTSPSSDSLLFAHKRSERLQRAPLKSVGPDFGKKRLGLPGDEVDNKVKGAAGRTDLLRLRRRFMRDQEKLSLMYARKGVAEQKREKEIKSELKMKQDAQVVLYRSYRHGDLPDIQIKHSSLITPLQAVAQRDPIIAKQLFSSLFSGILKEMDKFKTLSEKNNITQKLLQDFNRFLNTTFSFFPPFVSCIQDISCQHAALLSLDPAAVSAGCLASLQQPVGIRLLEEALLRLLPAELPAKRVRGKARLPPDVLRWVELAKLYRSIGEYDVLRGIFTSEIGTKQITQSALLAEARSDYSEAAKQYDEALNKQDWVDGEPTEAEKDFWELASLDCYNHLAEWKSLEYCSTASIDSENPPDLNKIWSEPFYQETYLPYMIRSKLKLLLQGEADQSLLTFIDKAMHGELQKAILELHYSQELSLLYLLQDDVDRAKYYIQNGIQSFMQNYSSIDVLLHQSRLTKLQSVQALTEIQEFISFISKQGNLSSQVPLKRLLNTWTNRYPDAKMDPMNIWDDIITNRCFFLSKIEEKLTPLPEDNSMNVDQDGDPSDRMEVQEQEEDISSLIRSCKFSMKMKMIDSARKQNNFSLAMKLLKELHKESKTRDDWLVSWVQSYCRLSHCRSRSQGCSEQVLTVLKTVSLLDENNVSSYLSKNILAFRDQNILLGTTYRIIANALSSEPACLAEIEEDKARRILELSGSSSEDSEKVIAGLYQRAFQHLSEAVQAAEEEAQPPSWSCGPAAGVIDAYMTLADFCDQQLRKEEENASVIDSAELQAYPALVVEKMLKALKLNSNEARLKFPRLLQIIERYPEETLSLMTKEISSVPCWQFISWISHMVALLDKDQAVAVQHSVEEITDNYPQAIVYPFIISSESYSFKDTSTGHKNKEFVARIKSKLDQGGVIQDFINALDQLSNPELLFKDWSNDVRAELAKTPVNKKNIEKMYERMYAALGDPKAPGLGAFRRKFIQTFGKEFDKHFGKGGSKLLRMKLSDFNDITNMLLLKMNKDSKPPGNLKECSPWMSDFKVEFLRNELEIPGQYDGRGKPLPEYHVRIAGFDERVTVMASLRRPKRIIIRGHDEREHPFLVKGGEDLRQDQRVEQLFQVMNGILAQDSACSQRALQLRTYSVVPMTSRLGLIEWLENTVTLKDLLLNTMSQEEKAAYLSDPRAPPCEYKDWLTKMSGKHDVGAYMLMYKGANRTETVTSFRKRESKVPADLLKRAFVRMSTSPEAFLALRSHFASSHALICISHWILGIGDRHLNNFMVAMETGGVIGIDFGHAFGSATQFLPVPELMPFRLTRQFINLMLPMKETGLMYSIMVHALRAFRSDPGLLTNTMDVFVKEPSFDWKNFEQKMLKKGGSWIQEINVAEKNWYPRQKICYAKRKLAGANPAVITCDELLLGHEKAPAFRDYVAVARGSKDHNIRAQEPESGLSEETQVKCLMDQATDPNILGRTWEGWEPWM

off-target kinases [5] = target: off-target kinases (Homo sapiens, UniProt P42345); details: FRAP1 (mTOR), ZLYTE, ATP Km app
off-target kinases [6] = target: off-target kinases (Homo sapiens, UniProt P11309); details: PIM1, ZLYTE, ATP Km app
off-target kinases [7] = target: off-target kinases (Homo sapiens, UniProt P07948); details: LYN A, ATP Km app, ZLYTE
off-target kinases [8] = target: off-target kinases (Homo sapiens, UniProt P16591); details: FER, ZLYTE, ATP Km app

**Q.** Which results are given for `N#Cc1cc(-c2ncnc(Nc3ccc(N4CCN(C5COC5)CC4)cc3)n2)ccc1OC1CCOCC1` [Compound 1, 5-(4-((4-(4-(oxetan-3-yl)piperazin-1-yl)phenyl)amino)-1,3,5-triazin-2-yl)-2-((tetrahydro-2H-pyran-4-yl)oxy)benzonitrile]?
**A.** inhibition (off-target kinases [1]; read-out: % Inhibition 1): 9%; inhibition (off-target kinases [1]; read-out: % Inhibition 2): 7%; inhibition (off-target kinases [1]; read-out: % Inhibition Avg): 8%; inhibition (off-target kinases [2]; read-out: % Inhibition 1): 33%; inhibition (off-target kinases [2]; read-out: % Inhibition 2): 34%; inhibition (off-target kinases [2]; read-out: % Inhibition Avg): 33%; inhibition (off-target kinases [3]; read-out: % Inhibition 1): 85%; inhibition (off-target kinases [3]; read-out: % Inhibition 2): 87%; inhibition (off-target kinases [3]; read-out: % Inhibition Avg): 86%; inhibition (off-target kinases [4]; DNA-PK, ZLYTE, ATP Km app, read-out: % Inhibition 1): 2%; inhibition (off-target kinases [4]; DNA-PK, ZLYTE, ATP Km app, read-out: % Inhibition 2): -4%; inhibition (off-target kinases [4]; read-out: % Inhibition Avg): -1%; inhibition (off-target kinases [5]; read-out: % Inhibition 1): 2%; inhibition (off-target kinases [5]; read-out: % Inhibition 2): 12%; inhibition (off-target kinases [5]; read-out: % Inhibition Avg): 7%; inhibition (off-target kinases [6]; read-out: % Inhibition 1): 11%; inhibition (off-target kinases [6]; read-out: % Inhibition 2): 3%; inhibition (off-target kinases [6]; read-out: % Inhibition Avg): 7%; inhibition (off-target kinases [7]; read-out: % Inhibition 1): 48%; inhibition (off-target kinases [7]; read-out: % Inhibition 2): 48%; inhibition (off-target kinases [7]; read-out: % Inhibition Avg): 48%; inhibition (off-target kinases [8]; read-out: % Inhibition 1): 4%; inhibition (off-target kinases [8]; read-out: % Inhibition 2): 9%; inhibition (off-target kinases [8]; read-out: % Inhibition Avg): 7%
